pIC50: −log10 of the molar value.
Target: T1, Human M4 (Homo sapiens, UniProt P08173)
T1 construct: expressed in transfected cells; host or cells: CHO-K1 (ATCC), stably expressing M4 and Gqi5
T1 sequence (P08173 1-479): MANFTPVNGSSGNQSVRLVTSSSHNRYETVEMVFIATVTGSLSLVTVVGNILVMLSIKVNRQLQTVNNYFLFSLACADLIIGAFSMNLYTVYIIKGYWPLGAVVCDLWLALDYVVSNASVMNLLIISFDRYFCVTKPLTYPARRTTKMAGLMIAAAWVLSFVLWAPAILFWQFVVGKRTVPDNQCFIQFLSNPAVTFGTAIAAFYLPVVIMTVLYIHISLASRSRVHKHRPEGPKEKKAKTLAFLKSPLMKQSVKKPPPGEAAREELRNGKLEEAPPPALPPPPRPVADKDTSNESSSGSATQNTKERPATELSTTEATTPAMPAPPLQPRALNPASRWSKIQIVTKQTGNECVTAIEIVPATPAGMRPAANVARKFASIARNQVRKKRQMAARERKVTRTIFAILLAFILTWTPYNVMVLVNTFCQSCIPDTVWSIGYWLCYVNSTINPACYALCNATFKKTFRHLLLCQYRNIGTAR
Assay: mAChR M4 cell-based functional assay (calcium flux, antagonism of EC80 acetylcholine response)
Settings: M4/Gqi5 CHO-K1 cells; for Human M4 Emin: % ACh maximum at 30 μM; for pIC50: decrease of the response elicited by an EC80 concentration of acetylcholine
Protocol: Human or rat M4 cDNA, along with the chimeric G protein Gqi5, were transfected into Chinese hamster ovary (CHO-K1) cells purchased from the American Type Culture Collection using Lipofectamine2000. M4/Gqr5/CHO cells were grown in Ham's F-12 medium containing 10% heat-inactivated fetal bovine serum (FBS), 20 mM HEPES, 500 μg/mL G418 sulfate, and 200 μg/mL Hygromycin B.
For high throughput measurement of agonist-evoked increases in intracellular calcium, CHO-K1 cells stably expressing muscarinic receptors were plated in growth medium lacking G418 and hygromycin at 15,000 cells/20 μL/well in Greiner 384-well black-walled, tissue culture (TC)-treated, clear-bottom plates (VWR). Cells were incubated overnight at 37° C. and 5% CO2. The next day, cells were washed using an ELX 405 (BioTek) with assay buffer; the final volume was then aspirated to 20 μL. Next, 20 μL of a 2.3 μM stock of Fluo-4/acetoxymethyl ester (Invitrogen, Carlsbad, CA), prepared as a 2.3 mM stock in DMSO and mixed in a 1:1 ratio with 10% (w/v) Pluronic F-127 and diluted in assay buffer, was added to the wells and the cell plates were incubated for 50 min at 37° C. and 5% CO2. Dye was removed by washing with the ELX 405 and the final volume was aspirated to 20 μL. Compound master plates were formatted in a 10 point concentration-response curve (CRC) format (1:3 dilutions) in 100% DMSO with a starting concentration of 10 or 1 mM using a BRAVO liquid handler (Agilent). Test compound CRCs were then transferred to daughter plates (240 nL) using the Echo acoustic plate reformatter (Labcyte, Sunnyvale, CA) and then diluted into assay buffer (40 μL) to a 2× stock using a Thermo Fisher Combi (Thermo Fisher Scientific, Waltham, MA).
Calcium flux was measured using the Functional Drug Screening System (FDSS) 6000 or 7000 (Hamamatsu Corporation, Tokyo, Japan) as an increase in the fluorescent static ratio. Compounds were applied to cells (20 μL, 2×) using the automated system of the FDSS at 2 seconds into the protocol and the data were collected at 1 Hz. At 143 s, 10 μL of an EC20 concentration of the muscarinic receptor agonist acetylcholine was added (5×), followed by the addition of 12 μL of an EC80 concentration of acetylcholine at the 268 s time point (5×). Agonist activity was analyzed as a concentration-dependent increase in calcium mobilization upon compound addition. Positive allosteric modulator activity was analyzed as a concentration-dependent increase in the EC20 acetylcholine response. Antagonist activity was analyzed as a concentration-dependent decrease in the EC80 acetylcholine response; for the purposes of the tables herein, an IC50 (inhibitory concentration 50) was calculated as a concentration-dependent decrease of the response elicited by an EC80 concentration of acetylcholine. Concentration-response curves were generated using a four-parameter logistical equation in XLFit curve fitting software (IDBS, Bridgewater, NJ) for Excel (Microsoft, Redmond, WA) or Prism (GraphPad Software, Inc., San Diego, CA) or the Dotmatics software platform (Dotmatics, Bishop's Stortford, UK).
Compounds were synthesized as described above. Activity (IC50 and Emin) was determined in the mAChR M4 cell-based functional assay as described above and the data are shown in Table 2.

SMILES | Human M4 Emin | pIC50
[2H]C([2H])(C1CCOCC1)N1C[C@H]2C[C@H](Nc3ccc(-c4cc(F)c(S(C)(=O)=NC(C)=O)cc4F)nn3)C[C@H]2C1 (stereo partly drawn) [compound 4, N-((2,5-difluoro-4-(6-(((3aR,5s,6aS)-2-((tetrahydro-2H-pyran-4-yl)methyl-d2)octahydrocyclopenta[c]pyrrol-5-yl)amino)pyridazin-3-yl)phenyl)(methyl)(oxo)-λ^6-sulfaneylidene)acetamide] | 6% | 6.23
[2H]C([2H])(C1CCOCC1)N1C[C@H]2C[C@H](Nc3ccc(-c4ccc(S(C)(=N)=O)cc4F)nn3)C[C@H]2C1 (stereo partly drawn) [compound 5, (3-fluoro-4-(6-(((3aR,5s,6aS)-2-((tetrahydro-2H-pyran-4-yl)methyl-d2)octahydrocyclopenta[c]pyrrol-5-yl)amino)pyridazin-3-yl)phenyl)(imino)(methyl)-λ^6-sulfanone] | 3% | 7.12
CS(=N)(=O)c1cc(F)c(-c2ccc(N[C@H]3C[C@@H]4CN(CC5CCOCC5)C[C@@H]4C3)nn2)cc1F (stereo partly drawn) [compound 7, (2,5-difluoro-4-(6-(((3aR,5s,6aS)-2-((tetrahydro-2H-pyran-4-yl)methyl)octahydrocyclopenta[c]pyrrol-5-yl)amino)pyridazin-3-yl)phenyl)(imino)(methyl)-λ^6-sulfanone] | 3% | 7.40
CS(=N)(=O)c1cc(F)c(-c2ccc(N[C@H]3C[C@@H]4CN(CCC5CCOCC5)C[C@@H]4C3)nn2)cc1F (stereo partly drawn) [compound 9, (2,5-difluoro-4-(6-(((3aR,5s,6aS)-2-(2-(tetrahydro-2H-pyran-4-yl)ethyl)octahydrocyclopenta[c]pyrrol-5-yl)amino)pyridazin-3-yl)phenyl)(imino)(methyl)-λ^6-sulfanone] | 3% | 7.74
CS(=N)(=O)c1cc(F)c(-c2ccc(N[C@H]3C[C@@H]4CN(CC5CCCCC5)C[C@@H]4C3)nn2)cc1F (stereo partly drawn) [compound 10, (4-(6-(((3aR,5s,6aS)-2-(cyclohexylmethyl)octahydrocyclopenta[c]pyrrol-5-yl)amino)pyridazin-3-yl)-2,5-difluorophenyl)(imino)(methyl)-λ^6-sulfanone] | 2% | 8.74
[2H]C([2H])(C1CCOCC1)N1C[C@H]2C[C@H](Nc3ccc(-c4ccc(S(C)(=N)=O)c(F)c4)nn3)C[C@H]2C1 (stereo partly drawn) [compound 6, (2-fluoro-4-(6-(((3aR,5s,6aS)-2-((tetrahydro-2H-pyran-4-yl)methyl-d2)octahydrocyclopenta[c]pyrrol-5-yl)amino)pyridazin-3-yl)phenyl)(imino)(methyl)-λ^6-sulfanone] | 3% | 6.73
[2H]C([2H])(C1CCOCC1)N1C[C@H]2C[C@H](Nc3ccc(-c4ccc(S(C)(=N)=O)c(C(F)(F)F)c4)nn3)C[C@H]2C1 (stereo partly drawn) [compound 13, imino(methyl)(4-(6-(((3aR,5s,6aS)-2-((tetrahydro-2H-pyran-4-yl)methyl-d2)octahydrocyclopenta[c]pyrrol-5-yl)amino)pyridazin-3-yl)-2-(trifluoromethyl)phenyl)-λ^6-sulfanone] | 3% | 8.07
[2H]C([2H])(C1CCOCC1)N1C[C@H]2C[C@H](Nc3ccc(-c4cc(F)c(S(C)(=N)=O)cc4F)nn3)C[C@H]2C1 (stereo partly drawn) [compound 1, (2,5-difluoro-4-(6-(((3aR,5s,6aS)-2-((tetrahydro-2H-pyran-4-yl)methyl-d2)octahydrocyclopenta[c]pyrrol-5-yl)amino)pyridazin-3-yl)phenyl)(imino)(methyl)-λ^6-sulfanone] | 4% | 7.87
[2H]C([2H])(C1CCOCC1)N1C[C@H]2C[C@H](Nc3ccc(-c4ccc(S(C)(=O)=NC(F)(F)F)cc4)nn3)C[C@H]2C1 (stereo partly drawn) [compound 12, methyl(4-(6-(((3aR,5s,6aS)-2-((tetrahydro-2H-pyran-4-yl)methyl-d2)octahydrocyclopenta[c]pyrrol-5-yl)amino)pyridazin-3-yl)phenyl)((trifluoromethyl)imino)-λ^6-sulfanone] | 2% | 7.36
CS(=N)(=O)c1cc(F)c(-c2ccc(N[C@H]3C[C@@H]4CN(Cc5ccccn5)C[C@@H]4C3)nn2)cc1F (stereo partly drawn) [compound 8, (2,5-difluoro-4-(6-(((3aR,5s,6aS)-2-(pyridin-2-ylmethyl)octahydrocyclopenta[c]pyrrol-5-yl)amino)pyridazin-3-yl)phenyl)(imino)(methyl)-λ^6-sulfanone] | 7% | 6.25
[2H]C([2H])([2H])N=S(C)(=O)c1cc(F)c(-c2ccc(N[C@H]3C[C@@H]4CN(C([2H])([2H])C5CCOCC5)C[C@@H]4C3)nn2)cc1F (stereo partly drawn) [compound 3, (2,5-difluoro-4-(6-(((3aR,5s,6aS)-2-((tetrahydro-2H-pyran-4-yl)methyl-d2)octahydrocyclopenta[c]pyrrol-5-yl)amino)pyridazin-3-yl)phenyl)(methyl)((methyl-d3)imino)-λ^6-sulfanone] | 3% | 7.73
[2H]C([2H])(C1CCOCC1)N1C[C@H]2C[C@H](Nc3ccc(-c4ccc(S(C)(=N)=O)cc4)nn3)C[C@H]2C1 (stereo partly drawn) [compound 2, imino(methyl)(4-(6-(((3aR,5s,6aS)-2-((tetrahydro-2H-pyran-4-yl)methyl-d2)octahydrocyclopenta[c]pyrrol-5-yl)amino)pyridazin-3-yl)phenyl)-λ^6-sulfanone] | 2% | 7.40
[2H]C([2H])(C1CC(C)(C)OC(C)(C)C1)N1C[C@H]2C[C@H](Nc3ccc(-c4cc(F)c(S(C)(=N)=O)cc4F)nn3)C[C@H]2C1 (stereo partly drawn) [compound 11, (2,5-difluoro-4-(6-(((3aR,5s,6aS)-2-((2,2,6,6-tetramethyltetrahydro-2H-pyran-4-yl)methyl-d2)octahydrocyclopenta[c]pyrrol-5-yl)amino)pyridazin-3-yl)phenyl)(imino)(methyl)-λ^6-sulfanone] | 3% | 7.06

From patent US12630540B2, “(4-(6-((2-octahydrocyclopenta[c]pyrrol-5-yl)amino)pyridazin-3-yl)phenyl)(imino)(methyl)-LAMBDA6-sulfanone derivatives and similar compounds as muscarinic acetylcholine receptor M4 antagonists for the treatment of neurodegenerative disorders” (Vanderbilt University, priority 2021, dated 2026)
